Measured values taken from patent US12396995B2, “Substituted 4-aminoisoindoline-1,3-dione compounds and second active agents for combined use” (Celgene Corporation, priority 2019, dated 2025).

Assays:
[1] = test system: primary CLL cells (CD5+CD19+ tumor cells); test: Ex vivo apoptosis of B-cell CLL patient cells, Compound 1 with venetoclax (flow cytometry, Caspase 3); assay type: cell-based, human; conditions: 144 hrs
Procedure: CLL is characterized by accumulation of clonal CD5^+CD19^+ lymphocytes resistant to apoptosis. Venetoclax blocks the anti-apoptotic B-cell lymphoma-2 (Bcl-2) protein, leading to programmed cell death of CLL cells and is currently being tested in the clinic with different combinations for relapsed refractory patients. The effect of Compound 1 in combination with venetoclax on the proliferation and survival of CLL B cells was assessed utilizing an ex vivo model where primary CLL cells from patient-derived blood were stimulated to proliferate with 10% fetal bovine serum (FBS), 5 ng/mL recombinant human interleukine-4 (rh IL-4), 10 ng/mL recombinant human interleukine-10 (rh IL-10) and co-cultured with fibroblast expressing surface CD154 (CD40L) in a 96 well plate format.
Peripheral blood mononuclear cells (PBMCs) from CLL patients (Table 6) containing 52%-86% of CD5^+CD19^+ tumor cells were cultured at a density of 0.06-0.1×10^6 cells/well on a monolayer of CD154-expressing fibroblasts at a density of 0.09×10^6 cells/well in 96-well plates in RPMI 1640 medium supplemented with 10% FBS, 5 ng/mL rh IL-4 and 10 ng/mL rh IL-10 and were simultaneously treated with vehicle control (0.1% DMSO) or increasing concentrations of Compound 1 ranging from 0.0001 to 1 μM and venetoclax at concentrations ranging from 0.001 to 10 μM across all the different concentrations of Compound 1. After 144 hrs of treatment with both the agents, flow cytometric analysis was used to determine the number of tumor cells that were viable or apoptotic.
(§1) After 6 days of treatment, the tumor cell count was assessed by staining the patient PBMCs in each condition with tumor cell surface markers CD5 & CD19 along with Live/Dead fixable dye to exclude the dead cells and followed by intracellular staining for Caspase 3 antibody to identify the apoptotic cells and was measured by flow cytometry (Attune NxT, Thermo Fisher). The live tumor cell count for each condition was calculated by normalizing to the precision count beads added to each sample.
For apoptosis analysis, the percentage of apoptosis combining both “early” (Caspase 3 positive and Live-Dead fixable dye negative) and “late” apoptosis (Caspase 3 and Live-Dead fixable dye positive) cell gates subtracting the baseline DMSO value was graphed using GraphPad Prism 8.0.0.0. The Ymax (maximal percentage of apoptosis achieved) values from apoptosis curves were calculated by performing a nonlinear regression curve fitting using log(agonist) vs. normalized response—Variable slope analysis and identifying the maximum value on GraphPad Prism 8.0.0 (Table 7).

[2] = test system: primary CLL cells (CD5+CD19+ tumor cells); test: Ex vivo apoptosis of B-cell CLL patient cells, Compound 1 with ibrutinib (flow cytometry, Caspase 3); assay type: cell-based, human; conditions: 144 hrs
Procedure: After 144 hrs of treatment with both the agents, flow cytometric analysis was used to determine the number of tumor cells that were viable or apoptotic.
as §1, with “The” for “After 6 days of treatment, the”, “Caspase3” for “Caspase 3”
For apoptosis analysis, the percentage of apoptosis combining both “early” (Caspase 3 positive and Live-Dead fixable dye negative) and “late” apoptosis (Caspase 3 and Live-Dead fixable dye positive) cell gates subtracting the baseline DMSO value was graphed using GraphPad Prism 8.0.0.0. The Ymax (maximal percentage of apoptosis achieved) values from apoptosis curves were calculated by performing a nonlinear regression curve fitting using log(agonist) vs. normalized response—Variable slope analysis and identifying the maximum value on GraphPad Prism 8.0.0 (Table 9).

[3] = DMSO + Cpd1 DRC (no venetoclax)

## O=C1CC[C@H](N2C(=O)c3cccc(NCc4ccc(CN5CC(N6CCOCC6)C5)cc4F)c3C2=O)C(=O)N1 [Compound 1, (S)-2-(2,6-dioxopiperidin-3-yl)-4-((2-fluoro-4-((3-morpholinoazetidin-1-yl)methyl)benzyl)amino)isoindoline-1,3-dione]
[1]; [3]
  Ymax of Pt 11 (%), maximal apoptosis: 12.42%
  Ymax of Pt 12 (%), maximal apoptosis: 14.64%
  Ymax of Pt 13 (%), maximal apoptosis: 27.00%
  Ymax of Pt 14 (%), maximal apoptosis: 13.32%
[1]; venetoclax 0.001 uM + Cpd1 DRC
  Ymax of Pt 11 (%), maximal apoptosis: 17.79%
  Ymax of Pt 12 (%), maximal apoptosis: 24.85%
  Ymax of Pt 13 (%), maximal apoptosis: 33.09%
  Ymax of Pt 14 (%), maximal apoptosis: 17.39%
[1]; venetoclax 0.01 uM + Cpd1 DRC
  Ymax of Pt 11 (%), maximal apoptosis: 38.49%
  Ymax of Pt 12 (%), maximal apoptosis: 34.24%
  Ymax of Pt 13 (%), maximal apoptosis: 49.03%
  Ymax of Pt 14 (%), maximal apoptosis: 27.33%
[1]; venetoclax 0.1 uM + Cpd1 DRC
  Ymax of Pt 11 (%), maximal apoptosis: 58.37%
  Ymax of Pt 12 (%), maximal apoptosis: 45.34%
  Ymax of Pt 13 (%), maximal apoptosis: 52.16%
  Ymax of Pt 14 (%), maximal apoptosis: 31.44%
[1]; venetoclax 1 uM + Cpd1 DRC
  Ymax of Pt 11 (%), maximal apoptosis: 66.55%
  Ymax of Pt 12 (%), maximal apoptosis: 48.71%
  Ymax of Pt 13 (%), maximal apoptosis: 55.23%
  Ymax of Pt 14 (%), maximal apoptosis: 40.57%
[1]; venetoclax 10 uM + Cpd1 DRC
  Ymax of Pt 11 (%), maximal apoptosis: 72.34%
  Ymax of Pt 12 (%), maximal apoptosis: 54.25%
  Ymax of Pt 13 (%), maximal apoptosis: 60.52%
  Ymax of Pt 14 (%), maximal apoptosis: 45.98%
[2]; DMSO + Cpd1 DRC (no ibrutinib)
  Ymax of Pt 11 (%), maximal apoptosis: 14.40%
  Ymax of Pt 12 (%), maximal apoptosis: 14.19%
  Ymax of Pt 13 (%), maximal apoptosis: 36.93%
  Ymax of Pt 14 (%), maximal apoptosis: 17.21%
[2]; ibrutinib 0.001 uM + Cpd1 DRC
  Ymax of Pt 11 (%), maximal apoptosis: 19.80%
  Ymax of Pt 12 (%), maximal apoptosis: 15.67%
  Ymax of Pt 13 (%), maximal apoptosis: 26.75%
  Ymax of Pt 14 (%), maximal apoptosis: 17.87%
[2]; ibrutinib 0.01 uM + Cpd1 DRC
  Ymax of Pt 11 (%), maximal apoptosis: 18.66%
  Ymax of Pt 12 (%), maximal apoptosis: 13.66%
  Ymax of Pt 13 (%), maximal apoptosis: 30.53%
  Ymax of Pt 14 (%), maximal apoptosis: 18.30%
[2]; ibrutinib 0.1 uM + Cpd1 DRC
  Ymax of Pt 11 (%), maximal apoptosis: 12.33%
  Ymax of Pt 12 (%), maximal apoptosis: 17.47%
  Ymax of Pt 13 (%), maximal apoptosis: 32.49%
  Ymax of Pt 14 (%), maximal apoptosis: 13.59%
[2]; ibrutinib 1 uM + Cpd1 DRC
  Ymax of Pt 11 (%), maximal apoptosis: 19.73%
  Ymax of Pt 12 (%), maximal apoptosis: 22.48%
  Ymax of Pt 13 (%), maximal apoptosis: 29.70%
  Ymax of Pt 14 (%), maximal apoptosis: 17.65%
[2]; ibrutinib 10 uM + Cpd1 DRC
  Ymax of Pt 11 (%), maximal apoptosis: 29.73%
  Ymax of Pt 12 (%), maximal apoptosis: 24.18%
  Ymax of Pt 13 (%), maximal apoptosis: 35.37%
  Ymax of Pt 14 (%), maximal apoptosis: 19.33%
